Some results are limits rather than exact numbers.

What is called IC50 is the midpoint of a concentration-inhibition curve.

The assay deals with HPK1 (Homo sapiens (Human), UniProt Q92918). In words: HPK1 kinase activity inhibition test (ADP-Glo, luminescence). The following applies: HPK1 5 nM, ATP 2 μM, read-out: IC50, inhibitory effects of compounds on HPK1 kinase activity. Type of assay: biochemical. The protocol: 1. HPK1 Kinase Activity Inhibition Test
HPK1, sequence (Q92918 whole entry): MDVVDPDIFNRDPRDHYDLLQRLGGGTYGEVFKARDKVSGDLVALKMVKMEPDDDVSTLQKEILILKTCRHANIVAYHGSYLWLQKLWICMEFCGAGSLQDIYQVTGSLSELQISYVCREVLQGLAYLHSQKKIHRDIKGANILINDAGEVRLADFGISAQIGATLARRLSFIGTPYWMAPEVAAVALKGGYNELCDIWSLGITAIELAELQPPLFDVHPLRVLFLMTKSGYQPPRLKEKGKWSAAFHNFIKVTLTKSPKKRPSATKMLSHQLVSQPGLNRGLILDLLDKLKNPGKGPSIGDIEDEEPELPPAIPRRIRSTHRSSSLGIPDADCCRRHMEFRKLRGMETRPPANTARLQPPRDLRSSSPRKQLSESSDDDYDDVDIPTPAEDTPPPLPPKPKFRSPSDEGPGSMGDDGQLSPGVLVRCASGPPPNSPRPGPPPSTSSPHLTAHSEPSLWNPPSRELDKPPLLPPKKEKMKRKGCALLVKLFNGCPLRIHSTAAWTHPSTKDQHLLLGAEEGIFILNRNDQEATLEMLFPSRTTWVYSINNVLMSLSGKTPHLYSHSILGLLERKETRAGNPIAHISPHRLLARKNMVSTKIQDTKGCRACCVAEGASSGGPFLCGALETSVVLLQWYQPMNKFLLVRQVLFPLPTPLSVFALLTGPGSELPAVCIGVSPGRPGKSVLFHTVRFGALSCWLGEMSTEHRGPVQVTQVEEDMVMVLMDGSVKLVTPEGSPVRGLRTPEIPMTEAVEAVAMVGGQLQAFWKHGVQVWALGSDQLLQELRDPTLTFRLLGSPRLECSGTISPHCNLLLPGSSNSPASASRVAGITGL
The kinase activity of HPK1 is manifested as activity of autophosphorylation and phosphorylation of downstream substrates. In the process of autophosphorylation, additional substrates are not required, and ATP is consumed to generate ADP. The amount of the product was measured by ADP-Glo reagent and luminescence method to reflect kinase activity.
Test compounds: compounds prepared in the examples of this application.
Prepare compound stock solution: dissolve the compound to be tested in 100% DMSO to make a 10 mM stock solution;
Prepare 4× Kinase Reaction Buffer:
Prepare 2×HPK1 Kinase Solution:
Dilute the stock solution of the compound to be tested by 5 times with […], make a 4-fold equal dilution in a 96-well dilution plate, add 1 μL of the compound to 49 µL of kinase reaction buffer, and shake on a microplate shaker for 20 minutes. Transfer 2 μL of […] kinase solution to 384 reaction plate, add 1 μL of the test compound to the 384 reaction plate (Greiner, 784075), centrifuge for 1 minute (1000 rpm/min), incubate at 25° C. for 10 minutes. Transfer […] of the 4×ATP mixture to a 384 reaction plate, centrifuge for 1 minute (1000 rpm/mm), and incubate at 25° C. for 60 minutes. In the reaction system, the final concentration of DMSO was […]. Transfer 4 μL of ADP-Glo to a 384 reaction plate, centrifuge for 1 minute (1000 rpm/min), and incubate at 25° C. for 40 minutes. Transfer 8 μL detection solution to a 384 reaction plate, centrifuge for 1 minute (1000 rpm/min), and incubate at 25° C. for 40 minutes. The […] signal was read using a Biotek multi-function plate reader, and the […] (half inhibitory concentration) of the compound was obtained using a four-coefficient nonlinear fitting formula.
(ADP-Glo first removes unused ATP, then detects ADP through luciferase.)
On to `COc1cc(F)cc(F)c1-n1nc2c(-c3ccc4c(c3)CN(C)CC4)n[nH]c2cc1=O` [Compound 158, 5-(2,4-difluoro-6-methoxyphenyl)-3-(2-methyl-1,2,3,4-tetrahydroisoquinolin-7-yl)-1H-pyrazolo[4,3-c]pyridazin-6(5H)-one], for which the IC50 lay within 50 to 500 nM.
Take `COc1cccc(F)c1-n1nc2c(-c3ccc(C4CCN(C)CC4)cc3)n[nH]c2cc1=O` [Compound 24, 5-(2-fluoro-6-methoxyphenyl)-3-(4-(1-methylpiperidin-4-yl)phenyl)-1H-pyrazolo[4,3-c]pyridazin-6(5H)-one]: the IC50 was ≤ 50 nM.
As to `Cc1cccc(F)c1-n1nc2c(-c3cc(N4CCN(C)CC4)ccc3F)n[nH]c2cc1=O` [Compound 208, 3-(2-fluoro-5-(4-methylpiperazin-1-yl)phenyl)-5-(2-fluoro-6-methylphenyl)-1H-pyrazolo[4,3-c]pyridazin-6(5H)-one], the IC50 is ≤ 50 nM.
Next, `Cc1cccc(F)c1-n1nc2c(-c3cc4c(cc3F)CCN(C)C4)n[nH]c2cc1=O` [Compound 189, 3-(6-fluoro-2-methyl-1,2,3,4-tetrahydroisoquinolin-7-yl)-5-(2-fluoro-6-methylphenyl)-1H-pyrazolo[4,3-c]pyridazin-6(5H)-one]: 50 to 500 nM; `CC(=O)N1CCN(c2ccc(-c3n[nH]c4cc(=O)n(-c5c(C)cccc5F)nc34)cn2)CC1` [Compound 102, 3-(6-(4-acetylpiperazin-1-yl)pyrid-3-yl)-5-(2-fluoro-6-methylphenyl)-1H-pyrazolo[4,3-c]pyridazin-6(5H)-one]: 50 to 500 nM.
Turning to `COc1cccc(F)c1-n1nc2c(-c3ccc4c(c3F)CN(C)CC4)n[nH]c2cc1=O` [Compound 190, 3-(8-fluoro-2-methyl-1,2,3,4-tetrahydroisoquinolin-7-yl)-5-(2-fluoro-6-methoxyphenyl)-1H-pyrazolo[4,3-c]pyridazin-6(5H)-one], the IC50 is 50 to 500 nM.
For `Cc1cccc(F)c1-n1nc2c(-c3cnn(C)c3)n[nH]c2cc1=O` [Compound 17, 5-(2-fluoro-6-methylphenyl)-3-(1-methyl-1H-pyrazol-4-yl)-1H-pyrazolo[4,3-c]pyridazin-6(5H)-one], the IC50 fell in the range of 500 to 2000 nM.
Take `Cc1cccc(F)c1-n1nc2c(-c3ccc4c(c3)C(=O)N(C)CC4)n[nH]c2cc1=O` [Compound 183]: the half-inhibitory concentration (IC50) fell in the range of 500 to 2000 nM.
The value for `COc1cccc(F)c1-n1nc2c(-c3ccc(N4CCOCC4)cc3)n[nH]c2cc1=O` [Compound 92, 5-(2-fluoro-6-methoxyphenyl)-3-(4-morpholinophenyl)-1H-pyrazolo[4,3-c]pyridazin-6(5H)-one] was ≤ 50 nM.
Turning to `Cc1cccc(F)c1-n1nc2c(-c3cccc(N4CC5CCC(C4)N5C)c3)n[nH]c2cc1=O` [Compound 201, 5-(2-fluoro-6-methylphenyl)-3-(3-(8-methyl-3,8-diazabicyclo[3.2.1]octan-3-yl)phenyl)-1H-pyrazolo[4,3-c]pyridazin-6(5H)-one], the IC50 was ≤ 50 nM.
In the case of `COc1cnccc1-n1nc2c(-c3ccc(N4CCN(C)CC4)cc3)n[nH]c2cc1=O` [Compound 153, 5-(3-methoxypyrid-4-yl)-3-(4-(4-methylpiperazin-1-yl)phenyl)-1H-pyrazolo[4,3-c]pyridazin-6(5H)-one], the IC50 was in the range of 50 to 500 nM.
On to `Cc1cc(C#N)cc(F)c1-n1nc2c(-c3ccc4c(c3)CN(C(=O)CO)CC4)n[nH]c2cc1=O` [Compound 172, 3-fluoro-4-(3-(2-(2-hydroxylacetyl)-1,2,3,4-tetrahydroisoquinolin-7-yl)-6-oxo-1H-pyrazolo[4,3-c]pyridazin-5(6H)-yl)-5-methylbenzonitrile], for which the IC50 lay in the range of 50 to 500 nM.
`COc1cccc(C)c1-n1nc2c(-c3ccc(N4CCN(C)CC4)nc3)n[nH]c2cc1=O` [Compound 97, 5-(2-methoxy-6-methylphenyl)-3-(6-(4-methylpiperazin-1-yl)pyrid-3-yl)-1H-pyrazolo[4,3-c]pyridazin-6(5H)-one]: the IC50 is 50 to 500 nM.
As to `CNCc1cc(-c2n[nH]c3cc(=O)n(-c4c(C)cccc4F)nc23)ccc1N1CCN(C)CC1` [Compound 96, 3-(3-((methylamino)methyl)-4-(4-methylpiperazin-1-yl)phenyl)-5-(2-fluoro-6-methylphenyl)-1H-pyrazolo[4,3-c]pyridazin-6(5H)-one], the IC50 fell in the range of 50 to 500 nM.
`COc1cccc(F)c1-n1nc2c(-c3cccc(N4CCN(C)CC4)c3F)n[nH]c2cc1=O` [Compound 209, 3-(2-fluoro-3-(4-methylpiperazin-1-yl)phenyl)-5-(2-fluoro-6-methoxyphenyl)-1H-pyrazolo[4,3-c]pyridazin-6(5H)-one]: the IC50 lay in the range of 50 to 500 nM.
With `Cc1cccc(F)c1-n1nc2c(-c3ccc4c(c3)C(CO)N(C)CC4)n[nH]c2cc1=O` (stereo not shown) [Compound 184, 5-(2-fluoro-6-methylphenyl)-3-(1-(hydroxymethyl)-2-methyl-1,2,3,4-tetrahydroisoquinolin-7-yl)-1H-pyrazolo[4,3-c]pyridazin-6(5H)-one], the IC50 lay within 50 to 500 nM.
Next, `COc1ccncc1-n1nc2c(-c3ccc(-c4cnn(C)c4)cc3)n[nH]c2cc1=O` [Compound 152, 5-(4-methoxypyrid-3-yl)-3-(4-(1-methyl-1H-pyrazol-4-yl)phenyl)-1H-pyrazolo[4,3-c]pyridazin-6(5H)-one]: 50 to 500 nM.
As for `COC[C@@H]1Cc2ccc(-c3n[nH]c4cc(=O)n(-c5c(C)cccc5F)nc34)cc2CN1C` [Compound 180, (S)-5-(2-fluoro-6-methylphenyl)-3-(3-(methoxymethyl)-2-methyl-1,2,3,4-tetrahydroisoquinolin-7-yl)-1H-pyrazolo[4,3-c]pyridazin-6(5H)-one], the IC50 is ≤ 50 nM.
Turning to `Cc1cccc(F)c1-n1nc2c(-c3ccc4c(c3)CN3CCOC[C@@H]3C4)n[nH]c2cc1=O` [Compound 181, (S)-5-(2-fluoro-6-methylphenyl)-3-(1,3,4,6,11,11a-hexahydro-[1,4]oxazino[4,3-b]isoquinolin-8-yl)-1H-pyrazolo[4,3-c]pyridazin-6(5H)-one], the IC50 was 50 to 500 nM.
Next, `Cc1cccc(F)c1-n1nc2c(-c3ccc(N4CCN(C)CC4)c(CN(C)C)c3)n[nH]c2cc1=O` [Compound 95, 3-(3-((dimethylamino)methyl)-4-(4-methylpiperazin-1-yl)phenyl)-5-(2-fluoro-6-methylphenyl)-1H-pyrazolo[4,3-c]pyridazin-6(5H)-one]: 50 to 500 nM.
On to `COc1ccncc1-n1nc2c(-c3ccc(N4CCN(C)CC4)cc3)n[nH]c2cc1=O` [Compound 48, 5-(4-methoxypyrid-3-yl)-3-(4-(4-methylpiperazin-1-yl)phenyl)-1H-pyrazolo[4,3-c]pyridazin-6(5H)-one], for which the IC50 is 50 to 500 nM.
Next, `Cc1cccc(F)c1-n1nc2c(-c3cnc(N4CCOCC4)nc3)n[nH]c2cc1=O` [Compound 32, 5-(2-fluoro-6-methylphenyl)-3-(2-morpholinylpyrimidin-5-yl)-1H-pyrazolo[4,3-c]pyridazin-6(5H)-one]: 50 to 500 nM.
The value for `COc1cccc(F)c1-n1nc2c(-c3cccc(N4CCC(O)CC4)c3)n[nH]c2cc1=O` [Compound 206, 3-(3-(4-hydroxylpiperidin-1-yl)phenyl)-5-(2-fluoro-6-methoxyphenyl)-1H-pyrazolo[4,3-c]pyridazin-6(5H)-one] was 50 to 500 nM; that for `COc1cccc(F)c1-n1nc2c(-c3cc4c(cc3F)CCN(C)C4)n[nH]c2cc1=O` [Compound 191, 3-(6-fluoro-2-methyl-1,2,3,4-tetrahydroisoquinolin-7-yl)-5-(2-fluoro-6-methoxyphenyl)-1H-pyrazolo[4,3-c]pyridazin-6(5H)-one] was 50 to 500 nM.
Regarding `Cc1cccc(F)c1-n1nc2c(-c3cnc4c(c3)CN(C)CC4)n[nH]c2cc1=O` [Compound 187, 5-(2-fluoro-6-methylphenyl)-3-(6-methyl-5,6,7,8-tetrahydro-1,6-naphthyridin-3-yl)-1H-pyrazolo[4,3-c]pyridazin-6(5H)-one], the IC50 is 50 to 500 nM.
Next, `COc1cccc(F)c1-n1nc2c(-c3ccc4c(c3)CCN(C)C4)n[nH]c2cc1=O` [Compound 72, 5-(2-fluoro-6-methoxyphenyl)-3-(2-methyl-1,2,3,4-tetrahydroisoquinolin-6-yl)-1H-pyrazolo[4,3-c]pyridazin-6(5H)-one]: 50 to 500 nM; `Cc1cccc(F)c1-n1nc2c(-c3ccc4c(c3)CCN(C3CN(C)C3)C4)n[nH]c2cc1=O` [Compound 194, 5-(2-fluoro-6-methylphenyl)-3-(2-(1-methylazetidin-3-yl)-1,2,3,4-tetrahydroisoquinolin-6-yl)-1H-pyrazolo[4,3-c]pyridazin-6(5H)-one]: ≤ 50 nM; `Cc1cccc(F)c1-n1nc2c(-c3ccc4c(c3)CN(C(=O)CN3CCOCC3)CC4)n[nH]c2cc1=O` [Compound 169, 5-(2-fluoro-6-methylphenyl)-3-(2-(2-morpholinoacetyl)-1,2,3,4-tetrahydroisoquinolin-7-yl)-1H-pyrazolo[4,3-c]pyridazin-6(5H)-one]: 50 to 500 nM.

The values above are taken from patent publication US20230322789A1, “PYRAZOLOPYRIDAZINONE COMPOUND, AND PHARMACEUTICAL COMPOSITION AND USE THEREOF” (BroadenBio Co., Ltd., priority 2020, published 2023).
